Experimental data: ChEMBL document CHEMBL1144838, “Use of lantibiotic synthetases for the preparation of bioactive constrained peptides” (Bioorg Med Chem Lett, 2008)
Non-standard residues stand in square brackets, D forms with d. Residues, ends and D or L forms follow the SMILES beside them. Dha = C=C(N)C(=O)O

Legend:
Mus musculus [1] = species: Mus musculus; experiment: Agonist activity at mouse delta opioid receptor in mouse model; type: functional
Mus musculus [2] = species: Mus musculus; experiment: Agonist activity at mu opioid receptor in mouse model; type: functional
Tripeptidyl-peptidase 2 = Tripeptidyl-peptidase 2 (Homo sapiens, UniProt P29144); experiment: Inhibition of human tripeptidyl peptidase2 from erythrocytes
Tripeptidyl-peptidase 2, sequence (P29144 whole entry): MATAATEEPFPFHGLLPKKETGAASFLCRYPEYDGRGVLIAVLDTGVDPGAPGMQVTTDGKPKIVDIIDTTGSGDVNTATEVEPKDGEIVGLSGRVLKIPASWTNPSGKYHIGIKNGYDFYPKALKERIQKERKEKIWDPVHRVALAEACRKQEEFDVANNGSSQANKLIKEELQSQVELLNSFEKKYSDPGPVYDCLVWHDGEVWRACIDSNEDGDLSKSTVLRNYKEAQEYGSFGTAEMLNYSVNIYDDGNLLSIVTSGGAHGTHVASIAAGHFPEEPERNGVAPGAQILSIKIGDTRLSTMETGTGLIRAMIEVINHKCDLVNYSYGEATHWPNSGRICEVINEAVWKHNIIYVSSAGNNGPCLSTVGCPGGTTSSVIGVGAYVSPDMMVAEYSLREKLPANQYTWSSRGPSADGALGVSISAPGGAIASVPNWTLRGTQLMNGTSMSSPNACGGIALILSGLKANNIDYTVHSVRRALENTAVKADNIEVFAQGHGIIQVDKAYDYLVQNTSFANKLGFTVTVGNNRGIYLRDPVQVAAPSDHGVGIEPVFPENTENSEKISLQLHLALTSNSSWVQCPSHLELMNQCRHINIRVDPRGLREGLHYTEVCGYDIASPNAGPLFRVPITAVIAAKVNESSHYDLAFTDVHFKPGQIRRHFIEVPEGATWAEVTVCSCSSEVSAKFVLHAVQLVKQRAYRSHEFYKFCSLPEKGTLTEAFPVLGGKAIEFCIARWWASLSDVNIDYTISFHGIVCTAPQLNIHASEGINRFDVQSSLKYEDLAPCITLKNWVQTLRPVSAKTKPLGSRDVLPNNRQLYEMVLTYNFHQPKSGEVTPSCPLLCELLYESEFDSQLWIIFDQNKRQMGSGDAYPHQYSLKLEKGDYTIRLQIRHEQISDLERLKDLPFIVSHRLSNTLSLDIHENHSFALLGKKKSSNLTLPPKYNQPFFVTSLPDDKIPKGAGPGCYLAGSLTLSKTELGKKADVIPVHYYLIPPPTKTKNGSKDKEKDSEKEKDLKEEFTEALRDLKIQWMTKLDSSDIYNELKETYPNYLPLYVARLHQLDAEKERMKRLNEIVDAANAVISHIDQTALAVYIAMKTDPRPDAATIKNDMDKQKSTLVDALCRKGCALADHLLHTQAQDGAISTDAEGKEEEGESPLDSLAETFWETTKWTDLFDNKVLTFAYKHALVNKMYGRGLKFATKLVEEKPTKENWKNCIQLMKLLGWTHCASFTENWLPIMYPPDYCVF

| SMILES | ED50 (Mus musculus [1]) [nM] | ED50 (Mus musculus [2]) [nM] | Ki (Tripeptidyl-peptidase 2) [nM] |
| --- | --- | --- | --- |
| N[C@@H](Cc1ccc(O)cc1)C(=O)N[C@@H]1CSC[C@@H](C(=O)O)NC(=O)[C@H](Cc2ccccc2)NC(=O)CNC1=O | 0.0018 | 0.0018 |  |
| C=C(NC(=O)[C@H](C)NC(=O)[C@@H](N)CCCNC(=N)N)C(=O)N[C@H](C(=O)N[C@@H](C)C(=O)O)C(C)C (H-RA[Dha]VA-OH) |  |  | 20 |
| CN1CC[C@]23c4c5ccc(O)c4O[C@H]2[C@@H](O)C=C[C@H]3[C@H]1C5 [MORPHINE] | 15 | 15 |  |
